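All cell lines were grown in 96-well plates and treated with compound for 48 hours. GI50 marks 50% less growth.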 Activity calls are given as the source filed them. Cut-off read from the data, not from the text of the source: active = GI50 up to about 1.1 µM and inactive = higher.
Tests used:
Assay in all cases: DTP human tumour cell line panel, 48 h
[1] = tested on: NCI-H23
[2] = tested on: SR
[3] = tested on: OVCAR-5
[4] = tested on: 786-0
[5] = tested on: SNB-78
[6] = tested on: A549
[7] = tested on: UACC-62
[8] = tested on: KM12
[9] = tested on: M19-MEL
[10] = tested on: SN12C
[11] = tested on: SF-295
[12] = tested on: UACC-257
[13] = tested on: OVCAR-3
[14] = tested on: MOLT-4
[15] = tested on: RXF 393
[16] = tested on: OVCAR-8
[17] = tested on: SK-OV-3
[18] = tested on: OVCAR-4
[19] = tested on: EKVX
[20] = tested on: CCRF-CEM
[21] = tested on: HT-29
[22] = tested on: DMS-114
[23] = tested on: NCI-H522
[24] = tested on: DLD-1
[25] = tested on: SF-539
[26] = tested on: HOP-62
[27] = tested on: UO-31
[28] = tested on: RPMI-8226
[29] = tested on: A498
[30] = tested on: SNB-19
[31] = tested on: HCC 2998
[32] = tested on: SF-268
[33] = tested on: U-251
[34] = tested on: HOP-92
[35] = tested on: ACHN
[36] = tested on: LXFL 529
[37] = tested on: NCI-H226
[38] = tested on: IGROV-1
[39] = tested on: Malme-3M
[40] = tested on: SK-MEL-5
[41] = tested on: CAKI-1
[42] = tested on: HCT-116
[43] = tested on: SW-620
[44] = tested on: LOX IMVI
[45] = tested on: SK-MEL-28
[46] = tested on: COLO 205
[47] = tested on: HCT-15
[48] = tested on: NCI-H460
[49] = tested on: SK-MEL-2
[50] = tested on: M14
[51] = tested on: MDA-MB-231
[52] = tested on: K562
[53] = tested on: MCF7
[54] = tested on: T47D
[55] = tested on: MDA-MB-435
[56] = tested on: SNB-75
[57] = tested on: NCI/ADR-RES
[58] = tested on: BT-549
[59] = tested on: MDA-N
[60] = tested on: TK-10
[61] = tested on: PC-3
[62] = tested on: DU-145
[63] = tested on: Hs-578T
[64] = tested on: HL-60

Measured: GI50

COc1cc(Br)c(/C=N\c2cccc3ccc(OS(=O)(=O)c4ccc([N+](=O)[O-])cc4)cc23)cc1OC
inactive: [1] 44.1 µM | [2] > 100 µM | [3] > 100 µM | [4] 75.7 µM | [5] 34.2 µM | [6] 33.7 µM | [7] 29.4 µM | [8] 59.4 µM | [9] > 100 µM | [10] > 100 µM | [11] 5.06 µM | [12] > 100 µM | [13] > 100 µM | [14] > 100 µM | [15] > 100 µM | [16] > 100 µM | [17] > 100 µM | [18] > 100 µM | [19] > 100 µM | [20] > 100 µM | [21] > 100 µM | [22] > 100 µM | [23] 48 µM | [24] > 100 µM | [25] > 100 µM | [26] > 100 µM | [27] 7.33 µM | [28] > 100 µM | [29] > 100 µM | [30] 63.4 µM | [31] 36.4 µM | [32] > 100 µM | [33] > 100 µM | [34] 47.3 µM | [35] 12.4 µM | [36] 12.2 µM | [37] > 100 µM | [38] > 100 µM | [39] > 100 µM | [40] 13.8 µM | [41] 6.19 µM | [42] > 100 µM | [43] > 100 µM | [44] 6.59 µM | [45] 28.6 µM | [46] > 100 µM | [48] > 100 µM | [49] > 100 µM
10.5 µM: [47]

CC(C)Cn1cnc2c(Cl)nc3ccccc3c21
inactive: [1] 59.3 µM | [50] > 100 µM | [2] 25.6 µM | [3] 54.7 µM | [4] 80.2 µM | [51] 41.5 µM | [6] 59.4 µM | [7] 40.9 µM | [8] 37.8 µM | [52] 38.4 µM | [10] 70.6 µM | [53] 47.9 µM | [11] 72.6 µM | [54] 77.1 µM | [12] > 100 µM | [55] 53.2 µM | [56] 18.7 µM | [13] 41.3 µM | [14] 34.3 µM | [15] 51.8 µM | [16] 58.9 µM | [17] > 100 µM | [57] 61.2 µM | [18] 48.3 µM | [19] 16.6 µM | [20] 53.2 µM | [21] 46 µM | [23] 50.9 µM | [25] 46.3 µM | [58] 51.5 µM | [26] > 100 µM | [27] 18.5 µM | [28] 42.9 µM | [29] 33.9 µM | [30] > 100 µM | [31] 73.3 µM | [32] 57.3 µM | [59] 68.2 µM | [60] 53.6 µM | [33] 65.9 µM | [34] 21.8 µM | [61] 34.4 µM | [35] 30.2 µM | [37] 40 µM | [38] 31.9 µM | [39] > 100 µM | [62] 73.8 µM | [40] 12.2 µM | [63] 27.7 µM | [41] 45.8 µM | [64] 26.7 µM | [42] 34.4 µM | [43] 47.3 µM | [44] 35.5 µM | [45] > 100 µM | [46] 33.7 µM | [48] 54.2 µM | [49] > 100 µM
53.3 µM: [47]
